{"source": "patent US7491409B1", "about": "“Encapsulation of bioactive complexes in liposomes” (Transave, Inc., priority 1999, dated 2009)", "tested_on": "pZeoLacZ plasmid DNA", "description": "Each dialysis device was rotated on a 12 inch motorized wheel overnight (approximately 20 hours). The DNA-containing chamber was then withdrawn with repeated pipetting to mix the sample, and it was placed in a 250 μl volume cuvette. The absorbance at 400 nm was used to monitor turbidity against the buffer background.", "data": [{"smiles": "NCCCNCCCCNCCCN", "note": "[spermine]", "values": [{"measurement": "total spermine concentration sufficient to condense the DNA", "setting": "in the presence of the amount of N-C12-DOPE used", "result": 0.85, "unit": "mM"}, {"measurement": "spermine concentration sufficient to condense the plasmid DNA", "setting": "initial 250 μl emulsion, without N-C12-DOPE", "result": "approximately 0.6 mM"}]}]}
